Target: Vasopressin V1a receptor (Homo sapiens, UniProt P37288)
Assay: Vasopressin V1A Receptor Antagonist Assay: The purpose of this assay was to determine the inhibitory effect of synthesized compounds on the Vasopressin V1a receptor. The assay as performed in Chinese Hamster Ovary (CHO) cells expressing the human Arginine Vasopressin Receptor 1a (AVPR1a). Arginine Vasopressin (AVP) evokes an increase in intracellular calcium in CHO-AVPR1a cells which is measured in a fluorescence assay on the […] using calcium sensitive dyes. Test compounds were assessed for their ability to affect the magnitude of the response to AVP, with antagonists showing a concentration-dependent reduction in the AVP-mediated fluorescence. Compounds were tested in duplicate in a 10-point, 1:3 dilution series starting at a nominal concentration of 3 μM in the assay.CHO-AVPR1a cells were maintained in routine culture in T175 Flasks at 37° C., 5% CO2. The growth medium consists of Ham's F12 media supplemented with 10% v/v fetal bovine serum, 1× non-essential amino acids, and 0.4 mg/ml Geneticin G418.
Format: cell-based

Vasopressin V1a receptor, sequence (P37288 whole entry): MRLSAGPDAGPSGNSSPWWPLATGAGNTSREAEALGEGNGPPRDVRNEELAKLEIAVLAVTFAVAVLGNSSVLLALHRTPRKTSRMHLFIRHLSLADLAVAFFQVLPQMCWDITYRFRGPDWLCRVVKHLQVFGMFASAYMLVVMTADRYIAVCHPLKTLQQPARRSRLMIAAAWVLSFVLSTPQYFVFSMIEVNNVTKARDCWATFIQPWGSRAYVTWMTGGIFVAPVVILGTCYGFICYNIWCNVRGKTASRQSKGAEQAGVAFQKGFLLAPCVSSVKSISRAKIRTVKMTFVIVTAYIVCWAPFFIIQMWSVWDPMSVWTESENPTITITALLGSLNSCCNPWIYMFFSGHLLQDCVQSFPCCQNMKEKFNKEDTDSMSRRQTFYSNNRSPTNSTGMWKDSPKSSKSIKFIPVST

SMILES | IC50 [nM]
CN(C)C(=O)N1Cc2cc(Cl)ccc2-n2c(nnc2C2CC3(C2)CN(c2ccc(F)cn2)C3)C1 | < 100
O=C(C1CC1)N1CC2(CC(c3nnc4n3-c3ccc(Cl)cc3CN(C3CC3)C4)C2)C1 | < 100

— ChEMBL document CHEMBL5728840, “Vasopressin receptor antagonists and products and methods related thereto” (2021)
